# pIC50: −log10 of the molar value.
# Target: T1, human recombinant PDE9 enzyme (Homo sapiens, UniProt O76083)
# T1 construct: made in house; host or cells: SF-9 insect cells
# Assay: Phosphodiesterase 9 (PDE9) inhibitory activity, Scintillation Proximity (SPA) assay
# Assay type: biochemical
# Conditions: human recombinant PDE9 from SF-9 cells; 50 nM [3H]cGMP; room temperature, 30 min; Examples 3-114; read-out: G5678A (U): IC50
# Protocol: Phosphodiesterase 9 (PDE9) Inhibitory Activity The PDE9 assay was performed using the Phosphodiesterase Scintillation Proximity (SPA) assay (GE Healthcare Life Sciences). […] The human recombinant PDE9 enzyme was generated in SF-9 cells, the cell pellets were sonicated in buffer (20 mM TRIS, 2 mM benzamidine, 1 mM EDTA, 250 mM sucrose, 100 μM PMSF, pH 7.5 with HCl), centrifuged at 40,000×g for 20 min at 4° C. The supernatants were stored at −80° C. […] Test compounds were dissolved in DMSO, diluted in DI H2O and serially diluted in 20% DMSO/80% H2O, for a final concentration of 2% DMSO. For the assay the PDE9 was diluted with assay buffer such that 20% or less of the substrate was hydrolyzed to 5′GMP. Each assay well contained 10 μl of test compound or solvent, 40 μl of [^3H]CGMP and 50 μl of enzyme, background was determined by a high concentration of a PDE inhibitor. The assay was initiated with the addition of the enzyme and carried out at room temperature for 30 min. […] The plates were sealed, vortexed, allowed to set for >300 min, then counted in a Wallac TriLux MicroBeta LSC.
# T1 sequence (O76083 whole entry): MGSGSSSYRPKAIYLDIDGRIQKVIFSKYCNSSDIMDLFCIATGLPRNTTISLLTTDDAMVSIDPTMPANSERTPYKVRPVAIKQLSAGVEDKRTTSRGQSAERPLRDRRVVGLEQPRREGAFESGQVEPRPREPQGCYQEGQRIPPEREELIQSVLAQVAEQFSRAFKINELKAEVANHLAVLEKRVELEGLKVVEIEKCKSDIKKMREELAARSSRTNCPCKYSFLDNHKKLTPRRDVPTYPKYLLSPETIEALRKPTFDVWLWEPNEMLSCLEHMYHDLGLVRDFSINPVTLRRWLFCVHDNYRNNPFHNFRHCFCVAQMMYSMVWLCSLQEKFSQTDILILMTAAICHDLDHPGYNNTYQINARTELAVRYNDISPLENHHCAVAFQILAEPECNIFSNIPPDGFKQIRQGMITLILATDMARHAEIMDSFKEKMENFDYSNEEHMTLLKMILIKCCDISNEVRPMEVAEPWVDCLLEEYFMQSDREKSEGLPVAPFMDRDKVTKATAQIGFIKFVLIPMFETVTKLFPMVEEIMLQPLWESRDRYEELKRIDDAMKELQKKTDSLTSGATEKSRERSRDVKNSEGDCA
row,pIC50,SMILES
1,6.91,"C[C@@H]1CN(Cc2ccccc2)C[C@H]1c1nc2c(cnn2C2CCC(F)(F)CC2)c(=O)[nH]1 (racemic) [Example 63, 6-[(3,4-trans)-1-benzyl-4-methylpyrrolidin-3-yl]-1-(4,4-difluorocyclohexyl)-1,5-dihydro-4H-pyrazolo[3,4-d]pyrimidin-4-one]"
2,7.51,"COc1ccc2nccc(CN3C[C@@H](C)[C@H](c4nc5c(cnn5C(C)C)c(=O)[nH]4)C3)c2n1 (racemic) [Example 69, 1-isopropyl-6-{(3,4-trans)-1-[(6-methoxy-1,5-naphthyridin-4-yl)methyl]-4-methylpyrrolidin-3-yl}-1,5-dihydro-4H-pyrazolo[3,4-d]pyrimidin-4-one]"
3,7.99,"CC(C)n1ncc2c(=O)[nH]c([C@@H]3CN(Cc4ccc5cccc(F)c5n4)C[C@H]3C)nc21 (racemic) [Example 70, 6-{(3,4-trans)-1-[(8-fluoroquinolin-2-yl)methyl]-4-methylpyrrolidin-3-yl}-1-isopropyl-1,5-dihydro-4H-pyrazolo[3,4-d]pyrimidin-4-one]"
4,7.79,"COc1ccc2nccc(CN3C[C@@H](C)[C@H](c4nc5c(cnn5C(C)C)c(=O)[nH]4)C3)c2c1 (racemic) [Example 71, 1-isopropyl-6-{(y)-1-[(6-methoxyquinolin-4-yl)methyl]-4-methylpyrrolidin-3-yl}-1,5-dihydro-4H-pyrazolo[3,4-d]pyrimidin-4-one]"
5,7.40,"C[C@@H]1CN(Cc2ccccc2)C[C@H]1c1nc2c(cnn2C2CCC2)c(=O)[nH]1 (racemic) [Example 72, 6-[(3,4-trans)-1-benzyl-4-methylpyrrolidin-3-yl]-1-cyclobutyl-1,5-dihydro-4H-pyrazolo[3,4-d]pyrimidin-4-one]"
6,8.21,CC[C@@H]1CN(Cc2cnc(C)nc2)C[C@H]1c1nc2c(cnn2C2CCOCC2)c(=O)[nH]1 (racemic) [Example 74]
7,7.61,"Cc1ncc(CN2C[C@@H](C)[C@H](c3nc4c(cnn4C4CCC4)c(=O)[nH]3)C2)cn1 (racemic) [Example 83, 1-cyclobutyl-6-{(3,4-trans)-4-methyl-1-[(2-methylpyrimidin-5-yl)methyl]pyrrolidin-3-yl}-1,5-dihydro-4H-pyrazolo[3,4-d]pyrimidin-4-one]"

# Same assay, conditions: human recombinant PDE9 from SF-9 cells; 50 nM [3H]cGMP; room temperature, 30 min; additional compounds Ex. 115-228; read-out: G5678A (U):IC50
row,pIC50,SMILES
1,7.39,"C[C@@H]1CN(Cc2cccc(-n3cccn3)c2)C[C@H]1c1nc2c(cnn2C2CCCC2)c(=O)[nH]1 (racemic) [Example 115, 1-cyclopentyl-6-{(3,4-trans)-4-methyl-1-[3-(1H-pyrazol-1-yl)benzyl]pyrrolidin-3-yl}-1,5-dihydro-4H-pyrazolo[3,4-d]pyrimidin-4-one]"
2,7.47,"Cc1cc(CN2C[C@@H](C)[C@H](c3nc4c(cnn4C4CCCC4)c(=O)[nH]3)C2)ccn1 (racemic) [Example 116, 1-cyclopentyl-6-{(3,4-trans)-4-methyl-1-[(2-methylpyridin-4-yl)methyl]pyrrolidin-3-yl}-1,5-dihydro-4H-pyrazolo[3,4-d]pyrimidin-4-one]"
3,6.90,"C[C@@H]1CN(Cc2c(F)cccc2Cl)C[C@H]1c1nc2c(cnn2C2CCCC2)c(=O)[nH]1 (racemic) [Example 117, 6-[(3,4-trans)-1-(2-chloro-6-fluorobenzyl)-4-methylpyrrolidin-3-yl]-1-cyclopentyl-1,5-dihydro-4H-pyrazolo[3,4-d]pyrimidin-4-one]"
4,7.13,"Cc1cccc(CN2C[C@@H](C)[C@H](c3nc4c(cnn4C4CCCC4)c(=O)[nH]3)C2)c1C (racemic) [Example 118, 1-cyclopentyl-6-[(3,4-trans)-1-(2,3-dimethylbenzyl)-4-methylpyrrolidin-3-yl]-1,5-dihydro-4H-pyrazolo[3,4-d]pyrimidin-4-one]"
5,7.48,"C[C@@H]1CN(Cc2ccccc2OC(F)F)C[C@H]1c1nc2c(cnn2C2CCCC2)c(=O)[nH]1 (racemic) [Example 119, 1-cyclopentyl-6-{(3,4-trans)-1-[2-(difluoromethoxy)benzyl]-4-methylpyrrolidin-3-yl}-1,5-dihydro-4H-pyrazolo[3,4-d]pyrimidin-4-one]"
6,7.20,"CCOc1ncccc1CN1C[C@@H](C)[C@H](c2nc3c(cnn3C3CCCC3)c(=O)[nH]2)C1 (racemic) [Example 120, 1-cyclopentyl-6-{(3,4-trans)-1-[(2-ethoxypyridin-3-yl)methyl]-4-methylpyrrolidin-3-yl}-1,5-dihydro-4H-pyrazolo[3,4-d]pyrimidin-4-one]"
7,7.08,"C[C@@H]1CN(Cc2cnn3c2CCCC3)C[C@H]1c1nc2c(cnn2C2CCCC2)c(=O)[nH]1 (racemic) [Example 121, 1-cyclopentyl-6-[(3,4-trans)-4-methyl-1-(4,5,6,7-tetrahydropyrazolo[1,5-a]pyridin-3-ylmethyl)pyrrolidin-3-yl]-1,5-dihydro-4H-pyrazolo[3,4-d]pyrimidin-4-one]"
8,7.25,"C[C@@H]1CN(Cc2ccc3c(c2)OCCO3)C[C@H]1c1nc2c(cnn2C2CCCC2)c(=O)[nH]1 (racemic) [Example 122, 1-cyclopentyl-6-[(3,4-trans)-1-(2-3-dihydro-1,4-benzodioxin-6-ylmethyl)-4-methylpyrrolidin-3-yl]-1,5-dihydro-4H-pyrazolo[3,4-d]pyrimidin-4-one]"
9,7.41,"C[C@@H]1CN(Cc2ccc(-n3ccnc3)cc2)C[C@H]1c1nc2c(cnn2C2CCCC2)c(=O)[nH]1 (racemic) [Example 123, 1-cyclopentyl-6-{(3,4-trans)-1-[4-(1H-imidazol-1-yl)benzyl]-4-methylpyrrolidin-3-yl}-1,5-dihydro-4H-pyrazolo[3,4-d]pyrimidin-4-one]"
10,7.09,"C[C@@H]1CN(Cc2cc(Cl)ccc2Cl)C[C@H]1c1nc2c(cnn2C2CCCC2)c(=O)[nH]1 (racemic) [Example 124, 1-cyclopentyl-6-[(3,4-trans)-1-(2,5-dichlorobenzyl)-4-methylpyrrolidin-3-yl]-1,5-dihydro-4H-pyrazolo[3,4-d]pyrimidin-4-one]"
11,7.26,"COc1ccc(CN2C[C@@H](C)[C@H](c3nc4c(cnn4C4CCCC4)c(=O)[nH]3)C2)cc1C (racemic) [Example 125, 1-cyclopentyl-6-[(3,4-trans)-1-(4-methoxy-3-methylbenzyl)-4-methylpyrrolidin-3-yl]-1,5-dihydro-4H-pyrazolo[3,4-d]pyrimidin-4-one]"
12,7.05,"C[C@@H]1CN(Cc2cccc3c2OCC3)C[C@H]1c1nc2c(cnn2C2CCCC2)c(=O)[nH]1 (racemic) [Example 126, 1-cyclopentyl-6-[(3,4-trans)-1-(2,3-dihydro-1-benzofuran-7-ylmethyl)-4-methylpyrrolidin-3-yl]-1,5-dihydro-4H-pyrazolo[3,4-d]pyrimidin-4-one]"
13,7.21,"C[C@@H]1CN(Cc2cccc(F)c2F)C[C@H]1c1nc2c(cnn2C2CCCC2)c(=O)[nH]1 (racemic) [Example 127, 1-cyclopentyl-6-[(3,4-trans)-1-(2,3-difluorobenzyl)-4-methylpyrrolidin-3-yl]-1,5-dihydro-4H-pyrazolo[3,4-d]pyrimidin-4-one]"
14,7.15,"COc1ccc(F)cc1CN1C[C@@H](C)[C@H](c2nc3c(cnn3C3CCCC3)c(=O)[nH]2)C1 (racemic) [Example 128, 1-cyclopentyl-6-[(3,4-trans)-1-(5-fluoro-2-methoxybenzyl)-4-methylpyrrolidin-3-yl]-1,5-dihydro-4H-pyrazolo[3,4-d]pyrimidin-4-one]"

# — patent publication US7964607B2, “Pyrazolo[3,4-d]pyrimidine compounds” (Pfizer Inc., priority 2007, dated 2011)
